The source of these data is publication PMC9532951, “Identification and characterization of a novel SNAT2 (SLC38A2) inhibitor reveals synergy with glucose transport inhibition in cancer cells” (Frontiers in Pharmacology, 2022).

Data set [1] relates to HCC1806 cells. The data set is described as follows: Growth assay (IncuCyte confluence), HCC1806. The following applies: Bay876 alone. The format is cell-based, human. The protocol:
(§1) Cells were seeded on 96-well flat bottom plates at approximately 3000 cells/well and incubated in growth medium (DMEM/F12 supplemented with 10% FBS, 2 mM glutamine) for 24 h. The next day, the growth medium was aspirated and exchanged with 300 μL/well of growth medium containing compounds at the indicated concentration. For live cell analysis, plates were placed in the IncuCyte system (Essen Bioscience), which was housed in a cell incubator (37°C, humidified atmosphere composed of 95% air and 5% CO2) and confluence measured at 6-h intervals or at the assay endpoint when untreated control cells reached a confluency >90%. Antibiotics (10 U/mL penicillin and 10 μg/ml streptomycin) were included in the treatment solutions.
(§2) Growth curves were generated using the Gompertz function of OriginPro software: y=ae^−e^(−k(x−xc))
(§3) Where a is the maximum confluence or upper asymptote, k is the growth rate coefficient, xc is the time point at which 50% confluence is reached (inflection point) and e is Euler’s number. Cell growth data are shown as % confluence.

Data set [2] has as its target T1, GLUT1 (Homo sapiens, UniProt P11166).
T1 sequence (P11166 1-492): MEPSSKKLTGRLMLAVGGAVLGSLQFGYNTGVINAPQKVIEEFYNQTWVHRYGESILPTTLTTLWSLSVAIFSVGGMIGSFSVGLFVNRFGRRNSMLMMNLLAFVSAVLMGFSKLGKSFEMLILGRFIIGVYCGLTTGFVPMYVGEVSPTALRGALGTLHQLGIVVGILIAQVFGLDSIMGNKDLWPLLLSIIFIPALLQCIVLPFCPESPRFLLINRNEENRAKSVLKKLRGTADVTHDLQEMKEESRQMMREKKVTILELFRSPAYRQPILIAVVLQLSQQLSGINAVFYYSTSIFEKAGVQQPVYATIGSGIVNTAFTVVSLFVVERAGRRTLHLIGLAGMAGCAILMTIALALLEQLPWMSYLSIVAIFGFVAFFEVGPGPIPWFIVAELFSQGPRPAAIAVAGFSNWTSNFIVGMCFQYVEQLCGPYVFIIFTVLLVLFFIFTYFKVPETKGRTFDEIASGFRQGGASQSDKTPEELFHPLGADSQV
The data set is described as follows: [14C]glucose uptake in HPAFII cells. The format is cell-based. Details: endogenous in cells; host or cells: MDA-MB-231 (A17), HPAFII (A18), SKOV3 (A19). The method, then: (§4) […] Modified Hanks HEPES-buffered salts solution (mHBSS; 137 mM NaCl; 5.4 mM KCl; 2.7 mM K2HPO4; 1 mM CaCl2; 0.5 mM MgCl2; 0.44 mM KH2PO4; 0.4 mM MgSO4; 5 mM D-glucose; 5 mM HEPES; pH 7.4) was used to wash and incubate cells where sodium dependent transport was measured, while N-methyl-D-glucamine (NMDG) and potassium salts substituted sodium in NMDG mHBSS to measure sodium independent uptake. For the assay, cells were seeded in 35 mm dishes and, once confluent, […] of ≥2000 cpm/nmol ([…]). After 6 min, cells were washed thrice with ice-cold mHBSS, lysed with 500 µl of 0.1 M HCl, detached with a cell scraper and triturated. A 400 µl aliquot was used for scintillation counting, while the remainder was saved for protein mass quantification by Bradford assay. Transport rates were normalised to the protein content of the culture dish.

The subject of data set [3] is HPAFII cells. The data set is described as follows: Growth assay (IncuCyte confluence), HPAFII. The format is cell-based, human. Also on record: key to Growth (Figure 6A) / cell confluence (Figure 6F): % confluence. The following applies: Bay876 1uM, replicates 1-3. The protocol: as §1, §2, §3
(§5) Synergism between drug combinations was quantified using ZIP synergy scoring as calculated by SynergyFinder ([Yadav et al., 2015]).

Data set [4] relates to HCC1806 cells. The data set is described as follows: Assay of glycolytic activity (extracellular lactate). The format is cell-based, human. The following applies: > 0.1 μM Bay-876. The protocol:
Glycolytic activity was measured by detecting extracellular lactate levels over a 48-h time course. HCC1806 and HPAFII cells were seeded on a 24-well plate at approximately 500,000 and 700,000 cells/well, respectively, and incubated in growth medium overnight. The following day, the growth medium was aspirated and each well was washed once with growth medium and 1.3 ml of the treatment solution was added to begin the time-course. In addition to sampling the medium at the start of the experiment, 50 μL was collected from each well at the following time points: 9, 24 and 48 h. Samples were stored at −20°C until further use. Lactate was detected by an enzymatic assay, which consisted of combining in microcentrifuge tubes: 5 μl of sample, 45 μl of water; 25 μl of 40 mM NAD^+; 421 μl of buffer (1M glycine, 600 mM hydrazine sulfate, 5.6 mM EDTA; adjusted to pH 9.5 with sodium hydroxide); and 4 μL of L-lactate dehydrogenase solved at 300U/mL (3.33 mg/ml). The tubes were briefly vortexed and incubated for 15 min before transferring 200 μL of the mixture to a 96-well plate. The calibration curve spanned final concentrations from 5 to 500 μM. Absorbance was measured at 340 nm to detect NADH. Lactate production was normalised to total cellular protein per well as measured by the Bradford assay.

Details of data set [5]: method as in Kopitz et al., 2016. The following applies: mice, cancer therapeutic dose; ref Kopitz et al., 2016; cited from earlier work.
Data set [6] concerns SKOV3 xenografts. Details: method as in Ma et al., 2018. The following applies: mice, ref Ma et al., 2018, cited from earlier work.
The test system of data set [7] is HCC1806 cells. The data set is described as follows: Glutamine in media supernatant by LC-MS (glutamine consumption). The following applies: Bay-876 1 μM. The class given is cell-based, human. The protocol: Amino acids were analyzed with an Orbitrap Q-Exactive Plus coupled to an UltiMate 3000 RSLCnano system (Thermo Fisher) as described previously ([Gauthier-Coles et al., 2021]).

Data set [8] has as its target T1, GLUT1. Description: [14C]glucose uptake in SKOV3 cells. Also on record: endogenous in cells; host or cells: SKOV3 (A19). The class given is cell-based. The protocol: as §4
The target of data set [9] is T1, GLUT1. Description: [14C]glucose uptake in MDA-MB-231 cells. Details: endogenous in cells; host or cells: MDA-MB-231 (A17). The class given is cell-based.
Data set [10] relates to MDA-MB-231 cells. Description: Growth assay (IncuCyte confluence), MDA-MB-231. The class given is cell-based, human. Also on record: key to Growth (Figure 6A) / cell confluence (Figure 6F): % confluence. The following applies: MDA-MB-231; Bay876 1uM; replicates 1-3. The method, then:
as §1, §2, §3, §5

Several values for one entry are separate records, joined by “and”; a condition that tells them apart may be missing. Identical values can stand only once.

Turning to `Cc1c(NC(=O)c2cc(C(N)=O)nc3cc(F)ccc23)c(C(F)(F)F)nn1Cc1ccc(C#N)cc1` [Bay-876], the “growth of HCC1806 cells” value in data set [1] is “quite sensitive”. Moreover, the “inhibition of glucose uptake” value in data set [2] (1 µM, 100 µM glucose) was “inhibited glucose uptake to comparable levels as 2-DG”; in data set [8] (1 µM, 100 µM glucose) it was “inhibited glucose uptake to comparable levels as 2-DG”; in data set [9] (1 µM, 100 µM glucose), “inhibited glucose uptake to comparable levels as 2-DG”. Also, the “Glucose uptake (nmol / mg protein x 6 min)” value is 2.423 nmol / mg protein x 6 min and 2.258 nmol / mg protein x 6 min and 2.749 nmol / mg protein x 6 min in data set [2] (HPAFII, 1uM); 2.054 nmol / mg protein x 6 min and 1.028 nmol / mg protein x 6 min and 1.361 nmol / mg protein x 6 min in [8] (SKOV3, 1uM); 4.491 nmol / mg protein x 6 min and 4.087 nmol / mg protein x 6 min and 3.799 nmol / mg protein x 6 min in data set [9] (MDA-MB-231, 1uM). The “cell confluence (Figure 6F)” value in [3] was 97.55 and 97.2 and 90.5; in data set [10] it was 97.85 and 98.65 and 98.1. Further, the lactate production entry in data set [4] is “blocked completely”. Also, the “oral availability and tolerability” value in data set [5] is “orally available and tolerated in mice”. Besides, in data set [6] (dose raised from 4.0 mg/kg/day to 7.5 mg/kg/day, 18-days treatment), the lethality entry is listed as “caused the death of all animals”. The body weight entry in data set [6] is “did not reduce body weight”. Further, in data set [6], the tumour growth entry was “reduced the growth of SKOV3 xenografts”. The glutamine consumption entry in data set [7] is given as “accelerated”.
